Values joined by “and” are separate entries in the source; they are usually repeats but may differ in a detail not shown here. Equal entries are not always repeated. Where two headings read alike, the source gives them in different places.
Key:
Assay type in all cases: cell-based
HEK293 pGL4 = assay: Firefly_pGL signal, cmpd/DMSO (pGL4 control cells); conditions: Homo sapiens
Renilla = Renilla signal in NR2F6 agonist screening, cmpd/DMSO; conditions: Renilla, F4
NR2F6 = target: T1, NR2F6 (Homo sapiens, UniProt P10588); assay: NR2F6 agonist screening, Firefly signal cmpd/DMSO
T1 construct: expressed in transfected cells; also transient transfection
T1 sequence (P10588 1-404): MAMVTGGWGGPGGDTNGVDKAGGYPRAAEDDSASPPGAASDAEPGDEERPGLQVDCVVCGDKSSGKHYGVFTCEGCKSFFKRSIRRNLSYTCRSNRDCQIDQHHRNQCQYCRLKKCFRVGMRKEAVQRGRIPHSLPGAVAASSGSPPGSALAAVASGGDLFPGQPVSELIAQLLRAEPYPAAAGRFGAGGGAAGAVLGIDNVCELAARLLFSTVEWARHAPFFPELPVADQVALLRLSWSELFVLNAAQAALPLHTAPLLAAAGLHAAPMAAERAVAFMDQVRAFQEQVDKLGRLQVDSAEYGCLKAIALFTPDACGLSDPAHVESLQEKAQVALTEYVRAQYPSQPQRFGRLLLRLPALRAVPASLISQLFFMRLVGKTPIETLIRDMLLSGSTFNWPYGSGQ

NR2F6 LBD = target: T2, NR2F6 LBD (Homo sapiens, UniProt P10588); assay: NR2F6 LBD transient transfection; conditions: LBD
T2 construct: expressed in transfected cells
T2 sequence (P10588 165-393 limits assumed): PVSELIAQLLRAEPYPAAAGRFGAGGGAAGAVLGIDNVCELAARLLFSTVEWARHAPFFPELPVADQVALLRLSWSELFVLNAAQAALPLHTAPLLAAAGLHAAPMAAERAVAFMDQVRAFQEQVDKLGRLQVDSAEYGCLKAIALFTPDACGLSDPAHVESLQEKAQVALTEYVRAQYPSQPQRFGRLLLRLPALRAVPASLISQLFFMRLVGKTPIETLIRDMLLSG
Summary of the method: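 LBD-transfected cells treated at 40, 10, 2 and 0.5 μM (4 replicates); cytotoxicity measured in parallel, normalized to DMSO (0%) and zero signal (100%). Higher concentrations excluded where signal loss reflected toxicity.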

[1] = HEK293, 0.5 uM, pGL4, read-out: Firefly pGL4, cmpd/DMSO (mean)
[2] = HEK293, 2 uM, pGL4, read-out: Firefly pGL4, cmpd/DMSO (mean)
[3] = HEK293, 10 uM, pGL4, read-out: Firefly pGL4, cmpd/DMSO (mean)
[4] = HEK293, 40 uM, pGL4, read-out: Firefly pGL4, cmpd/DMSO (mean)
[5] = HEK293, pGL4, 1% FBS, 0.5 uM, read-out: Firefly, pGL4, 1% FBS, cmpd/DMSO (mean)
[6] = HEK293, pGL4, 1% FBS, 2 uM, read-out: Firefly, pGL4, 1% FBS, cmpd/DMSO (mean)
[7] = HEK293, pGL4, 1% FBS, 10 uM, read-out: Firefly, pGL4, 1% FBS, cmpd/DMSO (mean)
[8] = HEK293, pGL4, 10% FBS, 0.5 uM, read-out: Firefly, pGL4, 10% FBS, cmpd/DMSO (mean)
[9] = HEK293, pGL4, 10% FBS, 2 uM, read-out: Firefly, pGL4, 10% FBS, cmpd/DMSO (mean)
[10] = HEK293, pGL4, 10% FBS, 10 uM, read-out: Firefly, pGL4, 10% FBS, cmpd/DMSO (mean)
[11] = read-out: Renilla, F4, cmpd/DMSO (mean)
[12] = 1% FBS, read-out: Renilla, F4, 1% FBS, cmpd/DMSO (mean)
[13] = 10% FBS, read-out: Renilla, F4, 10% FBS, cmpd/DMSO (mean)

Cc1cccc(CN[C@H]2CS(=O)(=O)C[C@@H]2S(=O)(=O)c2ccc(Cl)cc2)c1 [Compound D127]
fold induction at 0.5 µM (HEK293 pGL4; [1]): 1
fold induction at 2 µM (HEK293 pGL4; [2]): 1.4
fold induction at 10 µM (HEK293 pGL4; [3]): 1.8
fold induction at 40 µM (HEK293 pGL4; [4]): 2.6
fold induction at 0.5 µM (HEK293 pGL4; [5]): 1.3
fold induction at 2 µM (HEK293 pGL4; [6]): 1.9
fold induction at 10 µM (HEK293 pGL4; [7]): 2.7
fold induction at 0.5 µM (HEK293 pGL4; [8]): 1.2
fold induction at 2 µM (HEK293 pGL4; [9]): 1.7
fold induction at 10 µM (HEK293 pGL4; [10]): 2.7
fold induction at 0.5 µM (Renilla; [11]): 1
fold induction at 2 µM (Renilla; [11]): 1
fold induction at 10 µM (Renilla; [11]): 1.2
fold induction at 40 µM (Renilla; [11]): 1.3
fold induction at 0.5 µM (Renilla; [12]): 1.1
fold induction at 2 µM (Renilla; [12]): 1.2
fold induction at 10 µM (Renilla; [12]): 1.8
fold induction at 40 µM (Renilla; [12]): 1.5
fold induction at 0.5 µM (Renilla; [13]): 1
fold induction at 2 µM (Renilla; [13]): 1.1
fold induction at 10 µM (Renilla; [13]): 1.7
Firefly F4, cmpd/DMSO (mean) (NR2F6; 0.5 uM): 1.2
Firefly F4, cmpd/DMSO (mean) (NR2F6; 2 uM): 1.1
Firefly F4, cmpd/DMSO (mean) (NR2F6; 10 uM): 2.2
Firefly F4, cmpd/DMSO (mean) (NR2F6; 40 uM): 2.0
F4, Firefly/Renilla for S/B(F4) > 3 (NR2F6; 1% FBS, 10 uM): 2.7
Firefly, F4/pGL4 for S/B(F4) > 3 (NR2F6; 1% FBS, 10 uM): 1.8
F4, Firefly/Renilla for S/B(F4) > 3 (NR2F6; 1% FBS, 40 uM): 1.9
Firefly, F4/pGL4 for S/B(F4) > 3 (NR2F6; 1% FBS, 40 uM): 2.4
F4, Firefly/Renilla for S/B(F4) > 3 (NR2F6; 10% FBS, 10 uM): 3.2
Firefly, F4/pGL4 for S/B(F4) > 3 (NR2F6; 10% FBS, 10 uM): 2.1
F4, Firefly/Renilla for S/B(F4) > 3 (NR2F6; 10% FBS, 40 uM): 2.1
Firefly, F4/pGL4 for S/B(F4) > 3 (NR2F6; 10% FBS, 40 uM): 2.3
Firefly, F4, 1% FBS, cmpd/DMSO (mean) (NR2F6; 1% FBS, 0.5 uM): 1.0 and 1.3
Firefly, F4, 1% FBS, cmpd/DMSO (mean) (NR2F6; 1% FBS, 2 uM): 1.8 and 0.9
Firefly, F4, 10% FBS, cmpd/DMSO (mean) (NR2F6; 10% FBS, 0.5 uM): 1.2
Firefly, F4, 10% FBS, cmpd/DMSO (mean) (NR2F6; 10% FBS, 2 uM): 1.4 and 0.7
Firefly LBD, cmpd/DMSO (mean) (NR2F6 LBD; 0.5 uM): 1.2
Firefly LBD, cmpd/DMSO (mean) (NR2F6 LBD; 2 uM): 1.2
Firefly LBD, cmpd/DMSO (mean) (NR2F6 LBD; 10 uM): 2.3
Firefly LBD, cmpd/DMSO (mean) (NR2F6 LBD; 40 uM): 2.1

O=S1(=O)C[C@H](NCCc2cccs2)[C@@H](S(=O)(=O)c2ccc(Cl)cc2)C1 [Compound D128]
fold induction at 0.5 µM (HEK293 pGL4; [1]): 1.2
fold induction at 2 µM (HEK293 pGL4; [2]): 1.6
fold induction at 10 µM (HEK293 pGL4; [3]): 2.1
fold induction at 40 µM (HEK293 pGL4; [4]): 1.5
fold induction at 0.5 µM (HEK293 pGL4; [5]): 1.1
fold induction at 2 µM (HEK293 pGL4; [6]): 1.3
fold induction at 10 µM (HEK293 pGL4; [7]): 1.9
fold induction at 40 µM (HEK293 pGL4; HEK293, pGL4, 1% FBS, 40 uM, read-out: Firefly, pGL4, 1% FBS, cmpd/DMSO (mean)): 1.5
fold induction at 0.5 µM (HEK293 pGL4; [8]): 0.8
fold induction at 2 µM (HEK293 pGL4; [9]): 1.1
fold induction at 10 µM (HEK293 pGL4; [10]): 1.5
fold induction at 40 µM (HEK293 pGL4; HEK293, pGL4, 10% FBS, 40 uM, read-out: Firefly, pGL4, 10% FBS, cmpd/DMSO (mean)): 1.7
fold induction at 0.5 µM (Renilla; [11]): 1
fold induction at 2 µM (Renilla; [11]): 1.2
fold induction at 10 µM (Renilla; [11]): 1.4
fold induction at 40 µM (Renilla; [11]): 1.6
fold induction at 0.5 µM (Renilla; [12]): 1.2
fold induction at 2 µM (Renilla; [12]): 1.1
fold induction at 10 µM (Renilla; [12]): 1.6
fold induction at 40 µM (Renilla; [12]): 1.7
fold induction at 0.5 µM (Renilla; [13]): 0.9
fold induction at 2 µM (Renilla; [13]): 1
fold induction at 10 µM (Renilla; [13]): 1.1
fold induction at 40 µM (Renilla; [13]): 1.5
Firefly F4, cmpd/DMSO (mean) (NR2F6; 0.5 uM): 1.1
Firefly F4, cmpd/DMSO (mean) (NR2F6; 2 uM): 1.7
Firefly F4, cmpd/DMSO (mean) (NR2F6; 10 uM): 2.7
Firefly F4, cmpd/DMSO (mean) (NR2F6; 40 uM): 3.5
F4, Firefly/Renilla for S/B(F4) > 3 (NR2F6; 10% FBS, 40 uM): 2.2
Firefly, F4/pGL4 for S/B(F4) > 3 (NR2F6; 10% FBS, 40 uM): 1.9
Firefly, F4, 1% FBS, cmpd/DMSO (mean) (NR2F6; 1% FBS, 0.5 uM): 1.2
Firefly, F4, 1% FBS, cmpd/DMSO (mean) (NR2F6; 1% FBS, 2 uM): 1.5
Firefly, F4, 1% FBS, cmpd/DMSO (mean) (NR2F6; 1% FBS, 10 uM): 2.0
Firefly, F4, 1% FBS, cmpd/DMSO (mean) (NR2F6; 1% FBS, 40 uM): 2.0
Firefly, F4, 10% FBS, cmpd/DMSO (mean) (NR2F6; 10% FBS, 0.5 uM): 0.8
Firefly, F4, 10% FBS, cmpd/DMSO (mean) (NR2F6; 10% FBS, 2 uM): 0.9
Firefly, F4, 10% FBS, cmpd/DMSO (mean) (NR2F6; 10% FBS, 10 uM): 1.4
Firefly, F4, 10% FBS, cmpd/DMSO (mean) (NR2F6; 10% FBS, 40 uM): 3.3
Firefly LBD, cmpd/DMSO (mean) (NR2F6 LBD; 0.5 uM): 1.0
Firefly LBD, cmpd/DMSO (mean) (NR2F6 LBD; 2 uM): 1.1
Firefly LBD, cmpd/DMSO (mean) (NR2F6 LBD; 10 uM): 2.4
Firefly LBD, cmpd/DMSO (mean) (NR2F6 LBD; 40 uM): 2.6

From patent US11377442B2, “Small molecule agonists and antagonists of NR2F6 activity” (ZANDER THERAPEUTICS, INC., priority 2016, dated 2022)
